Tested on: Spodoptera frugiperda
Test: Laboratory test of 2nd instar larva of Spodoptera frugiperda on maize leaves (mortality)
Assay type: in vivo

CNC(=O)c1cc(Cl)cc(C)c1NC(=O)c1cc(Br)nn1-c1ncccc1Cl [Compound 2, 3-bromo-N-[4-chloro-2-methyl-6-[(methylamino)carbonyl]phenyl]-1-(3-chloro-2-pyridinyl)-1H-pyrazole-5-carboxamide]
concentration per g of leaf tissue resulting in 50% mortality within 72 h (50% mortality within 72 h): 0.033 micrograms per g of leaf tissu | concentration per g of tissue needed to achieve 100% mortality within 72 h (100% mortality within 72 h): 0.037 micrograms per g of tissue

— patent publication US9149039B2, “Anthranilic diamide/polymer propagule-coating compositions” (E I DU PONT DE NEMOURS AND COMPANY, priority 2011, dated 2015)
